According to patent EP4559908A1, “HETEROARYL DERIVATIVE COMPOUND AND USE THEREOF” (S2CBio Inc., priority 2022, dated 2024):

Target: T1, human ANO6 (variant 5) (Homo sapiens, UniProt Q4KMQ2)
T1 construct: expressed in transfected cells; host or cells: Fischer rat thyroid (FRT) cells
T1 sequence (Q4KMQ2 1-931 isoform Q4KMQ2-2): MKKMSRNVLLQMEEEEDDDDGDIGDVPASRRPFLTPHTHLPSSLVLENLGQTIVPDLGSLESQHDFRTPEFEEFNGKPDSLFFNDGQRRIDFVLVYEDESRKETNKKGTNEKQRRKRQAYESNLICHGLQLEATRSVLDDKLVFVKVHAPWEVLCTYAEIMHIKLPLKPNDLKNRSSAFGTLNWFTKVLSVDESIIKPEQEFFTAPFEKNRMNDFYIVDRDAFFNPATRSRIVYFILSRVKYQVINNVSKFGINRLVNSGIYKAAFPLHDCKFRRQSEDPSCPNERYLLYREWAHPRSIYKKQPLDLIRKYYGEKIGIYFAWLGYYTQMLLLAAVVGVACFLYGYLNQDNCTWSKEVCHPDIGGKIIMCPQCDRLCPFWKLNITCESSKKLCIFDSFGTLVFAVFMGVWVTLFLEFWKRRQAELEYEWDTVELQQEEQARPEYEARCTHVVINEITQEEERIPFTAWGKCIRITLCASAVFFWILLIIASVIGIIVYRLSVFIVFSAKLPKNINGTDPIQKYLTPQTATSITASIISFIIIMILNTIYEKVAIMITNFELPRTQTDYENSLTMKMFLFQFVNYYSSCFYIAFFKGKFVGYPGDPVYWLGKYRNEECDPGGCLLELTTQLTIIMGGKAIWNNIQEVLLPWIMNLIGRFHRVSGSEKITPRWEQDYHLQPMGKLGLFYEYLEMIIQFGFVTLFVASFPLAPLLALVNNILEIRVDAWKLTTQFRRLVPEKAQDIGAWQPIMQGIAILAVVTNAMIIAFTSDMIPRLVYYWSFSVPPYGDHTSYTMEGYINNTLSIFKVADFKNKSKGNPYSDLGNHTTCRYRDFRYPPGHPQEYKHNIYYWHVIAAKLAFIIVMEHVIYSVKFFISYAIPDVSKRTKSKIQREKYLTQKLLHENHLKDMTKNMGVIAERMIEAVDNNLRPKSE
Assay: Lact C2 assay (measuring phosphatidylserine externalization scramblase function)
Type: cell-based
Conditions: FRT, FRT cells expressing human ANO6 (variant 5), ionomycin 10 µM, Lact-C2-GFP fluorescence, average of three tests; for inhibition at 1 µM: compound 1 µM, read-out: % Inhibition 1 µM; for inhibition at 0.05 µM: compound 50 nM, read-out: % Inhibition 50 nM
Protocol: Ionomycin (Alomonelab, cat. # I-700), DAPI (Sigma- Aldrich, cat. # D8417), paraformaldehyde (Biosesang, cat. #P2031), Lionheart FX automated fluorescence microscope (BioTek), Gen5™ software program (BioTek), and Image J analysis software program.
After the incubation, the cells were treated with compounds dissolved in DMSO to 1% v/v in each well at each concentration (50 nM, 100 nM, and 1 µM) and reacted for 10 minutes. Thereafter, each well was treated with ionomycin to a final concentration of 10 µM, allowed to react for 10 minutes, and then washed with 200 µL PBS. After washing, each well was treated with 50 µL of Lactadherin-C2 (Lact-C2)-GFP mixed in DMEM medium to a final concentration of 500 nM to stain phosphatidylserine, and cultured at 37°C for 10 minutes. After completion of the reaction, the cells were washed with 200 µL PBS, and fixed with 4% paraformaldehyde for 5 minutes at room temperature. For morphological analysis, DAPI solution was added, and the cells were incubated for 15 minutes, followed by washing with PBS. The fluorescence intensity of Lact-C2-GFP bound to phosphatidylserine on the cell surface was measured using an automated fluorescence microscope. For quantitative analysis of the fluorescence intensity of Lact-C2-GFP, BioTek Gen5™ software and Image J analysis software programs were used.
Phosphatidylserine externalization inhibitory activity (%) by the compound was calculated through the following analysis method. Specifically, the background fluorescence value was subtracted from the measured Lact-C2-GFP fluorescence value, and the fluorescence value of the ionomycin non-treatment group and the ionomycin-treatment group in the same row where each test group was located in a 96-well microplate were calculated. In order to calculate the inhibitory activity (%) by the compound, the relative inhibitory activity was calculated by setting the compound and ionomycin non-treatment group to 100% inhibitory activity and the ionomycin alone treatment group to 0% inhibitory activity.

SMILES	inhibition at 1 µM [%]	inhibition at 0.05 µM [%]
COC(=O)c1ccc2nc(-c3cccc(Nc4ccc(-c5ncccn5)cc4)c3)[nH]c2c1 [Example 78, methyl 2-(3-((4-(pyrimidin-2-yl)phenyl)amino)phenyl)-1H-benzo[d]imidazol-6-carboxylate]	> 60	
FC(F)(F)c1cc2[nH]c(-c3cccc(Nc4ccc(-c5cccnn5)cc4)c3)nc2cn1 [Example 79, N-(4-(pyridazin-3-yl)phenyl)-3-(6-(trifluoromethyl)-1H-imidazolo[4,5-c]pyridin-2-yl)aniline]		> 60
Fc1cc2nc(-c3cccc(Nc4ccc(-c5cccnn5)cc4)c3)[nH]c2cc1F [Example 81, 3-(5,6-difluoro-1H-benzo[d]imidazol-2-yl)-N-(4-pyridazin-3-ylphenyl)aniline]		> 60
Clc1ccc2nc(-c3cccc(Nc4ncc(-c5ccccn5)cn4)c3)[nH]c2c1 [Example 82, N-[3-(6-chloro-1H-benzo[d]imidazol-2-yl)phenyl]-5-(2-pyridyl)pyrimidin-2-amine]		> 60
FC(F)(F)c1ccc2nc(-c3cccc(Nc4ncc(-c5ccccn5)cn4)c3)[nH]c2c1 [Example 83, 5-(2-pyridyl)-N-[3-[6-(trifluoromethyl)-1H-benzo[d]imidazol-2-yl]phenyl]pyrimidin-2-amine]		> 60
Clc1cc2[nH]c(-c3cccc(Nc4ccc(-c5cccnn5)cc4)c3)nc2cn1 [Example 84, 3-(6-chloro-1H-imidazo[4,5-c]pyridin-2-yl)-N-(4-pyridazin-3-ylphenyl)aniline]	> 60	
FC(F)(F)c1cc2[nH]c(-c3cccc(Nc4ccc(-c5ccncn5)cc4)c3)nc2cn1 [Example 86, N-(4-pyrimidin-4-ylphenyl)-3-[6-(trifluoromethyl)-1H-imidazo[4,5-c]pyridin-2-yl]aniline]	> 60	
FC(F)(F)c1ccc2nc(-c3cccc(Nc4ccc(-c5ccncn5)cn4)c3)[nH]c2c1 [Example 88, 5-pyrimidin-4-yl-N-[3-[6-(trifluoromethyl)-1H-benzo[d]imidazol-2-yl]phenyl]pyridin-2-amine]	> 60	> 60
FC(F)(F)c1cc2[nH]c(-c3cccc(Nc4ccc(-c5ccncn5)cn4)c3)nc2cn1 [Example 89, 5-pyrimidin-4-yl-N-[3-[6-(trifluoromethyl)-1H-imidazo[4,5-c]pyridin-2-yl]phenyl]pyridin-2-amine]	> 60	30 to 60
Fc1ccc2nc(-c3cccc(Nc4ccc(-c5ccccn5)cc4)c3)[nH]c2c1 [Example 92, 3-(6-fluoro-1H-benzo[d]imidazol-2-yl)-N-[4-(2-pyridyl)phenyl]aniline]	> 60	> 60
Cc1noc(-c2ccc3nc(-c4cccc(Nc5ccc(-c6cccnn6)cc5)c4)[nH]c3c2)n1 [Example 93, 3-(6-(3-methyl-1,2,4-oxadiazol-5-yl)-1H-benzo[d]imidazol-2-yl)-N-(4-(pyridazin-3-yl)phenyl)aniline]	> 60	30 to 60
c1cc(Nc2ccc(-c3ccnnc3)cc2)cc(-c2nc3ccccc3[nH]2)c1 [Example 94, 3-(1H-benzo[d]imidazol-2-yl)-N-(4-pyridazin-4-ylphenyl)aniline]	> 60	
Fc1cc2nc(-c3cccc(Nc4ccc(-c5ccncn5)cc4)c3)[nH]c2cc1F [Example 95, 3-(5,6-difluoro-1H-benzo[d]imidazol-2-yl)-N-(4-pyrimidin-4-ylphenyl)aniline]	> 60	> 60
Fc1ccc2nc(-c3cccc(Nc4ccc(-c5ccncn5)cc4)c3)[nH]c2c1 [Example 96, 3-(6-fluoro-1H-benzo[d]imidazol-2-yl)-N-(4-pyrimidin-4-ylphenyl)aniline]	> 60	> 60
c1cc(Nc2ccc(C3CCCCC3)cc2)cc(-c2nc3ccccc3[nH]2)c1 [Example 97, 3-(1H-benzo[d]imidazol-2-yl)-N-(4-cyclohexylphenyl)aniline]	> 60	
